Key:
[1] = Metabolic stability in vitro in rat hepatocytes; type: in vitro ADME; details: read-out: Intrinsic clearance
Experimental: The concentration of each compound in the reaction system was measured by LC/MS/MS to calculate the intrinsic clearance of the compounds to be tested, and evaluate the metabolic stability in vitro in rat hepatocytes.
To the incubation plate, 198 μL of 0.5×10^6 cells/mL rat hepatocyte mixture and 2.0 μL of 100 μM compound to be tested or positive control were added to initiate reaction. Incubation was performed at 900 rpm at 37° C. […] Then the mixture was vortex-mixed for 5 min. […] Then 100 μL of supernatant of each compound was transferred to a 96-well sample plate, and 100 μL of purified water was added to dilute the sample. The resulting samples were quantified by ion chromatograms. The residual rate was calculated from peak areas of the compounds to be tested or the positive control. The slope k was determined using Microsoft Excel by linear regression of natural logarithm of the residual rate to the incubation time. The intrinsic clearance (in vitro CLint, μL/min/10^6 cells) was calculated from the slope value according to the following equation: […]

[2] = Metabolic stability in vitro in human hepatocytes; type: in vitro ADME; details: read-out: Intrinsic clearance
Experimental: The concentration of each compound in the reaction system was measured by LC/MS/MS to calculate the intrinsic clearance of the compounds to be tested, and evaluate the metabolic stability in vitro in human hepatocytes.
To the incubation plate, 198 μL of 0.5×10^6 cells/mL human hepatocyte mixture and 2.0 μL of 100 μM compound to be tested or positive control were added to initiate reaction. Incubation was performed at 900 rpm at 37° C. […] Then the mixture was vortex-mixed for 5 min. […] Then 100 μL of supernatant of each compound was transferred to a 96-well sample plate, and 100 μL of purified water was added to dilute the sample.
The resulting samples were quantified by ion chromatograms. The residual rate was calculated from peak areas of the compounds to be tested or the positive control. The slope k was determined using Microsoft Excel by linear regression of natural logarithm of the residual rate to the incubation time. The intrinsic clearance (in vitro CLint, μL/min/10^6 cells) was calculated from the slope value according to the following equation: […]

[3] = molecular target: USP1 (Recombinant Human His6-USP1/His6-UAF1 Complex Protein) (Homo sapiens (Human), UniProt O94782); experiment: In vitro activity assay for USP1 (Ub-CHOP2-Reporter deubiquitination assay); type: biochemical; details: 0.5 h incubation at room temperature, read-out: In vitro inhibitory activity of USP1 IC50
Procedure, shortened: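 His6-USP1/His6-UAF1 complex was mixed with compound in 20 mM Tris-HCl pH 8.0, 2 mM CaCl2, 2 mM β-mercaptoethanol and 0.05% CHAPS. Ub-CHOP2 reporter system plus substrate was added, then incubated 0.5 h at room temperature. IC50 came from a four-parameter logistic fit.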

[4] = Caco-2 permeability assay; type: in vitro ADME; details: human, pH 7.4, Caco-2, 5 μM, 2 h
Experimental: The apparent permeability coefficient (Papp) of the analytical drug was determined by liquid chromatography-mass spectrometry (LC-MS/MS) through a Caco-2 cell model.
In this test example, Caco-2 cells were purchased from American Type Culture Collection (ATCC); 4-hydroxyethyl piperazine ethane sulfonic acid (HEPES) was purchased from Beijing Solarbio Science & Technology Co., Ltd.; Hanks' balanced salt solution (HBSS) and non-essential amino acids (NEAA) were purchased from ThermoFisher Scientific; penicillin, streptomycin, and trypsin/EDTA were purchased from Solarbio; fetal bovine serum (FBS) and DMEM medium were purchased from Corning; HTS-96-well Transwell plates and other sterile consumables were purchased from Corning; Millicell resistance measuring system was purchased from Millipore; Cellometer®K2 was purchased from Nexcelom Bioscience; Infinite 200 PRO microplate reader was purchased from Tecan; and MTS2/4 orbital shaker was purchased from IKA Labortechnik.
Caco-2 cells were cultured in a culture flask. […] Cells at a confluency of 70-90% can be used to inoculate the Transwell. Prior to cell inoculation, 50 μL of cell culture medium was added to each well of the upper Transwell chamber and 25 mL of cell culture medium was added to the lower plate. The plate was incubated in an incubator (37° C., 5% CO2) for 1 h, and then inoculated with cells. After cell digestion, the cell suspension was pipetted and transferred to a round bottom centrifuge tube for centrifugation at 120 g for 5 min. […] The medium was changed as follows: transwell chambers were separated from the receiver plate, medium in the receiver plate was discarded, then medium in the Transwell chambers was discarded, and finally, 75 μL of fresh medium was added to each chamber, and 25 mL of fresh medium was added to the receiver plate.
After approximately 14 days of culture, the Caco-2 cells reached the confluency and completed differentiation. In this case, the cells can be applied to permeability assay. The monolayer resistance was measured with a resistance meter (Millipore, USA) and the resistance per well was recorded. After the measurement, the Transwell plate was put back to the incubator. Calculation of resistance: measured resistance value (ohms)×membrane area (cm^2)=TEER value (ohm·cm^2); if TEER value <230 ohms·cm^2, the well can not be used for permeability assay.
In 900 mL of purified water, 2.38 g HEPES and 0.35 g sodium bicarbonate were dissolved, then 100 mL of 10×HBSS was added and stirred well, pH was adjusted to 7.4, and finally, the resulting solution was filtered to obtain 1 L of transport buffer (HBSS, 10 mM HEPES, pH 7.4).
A DMSO stock solution of 1 mM of compound to be tested was diluted with the transport buffer to obtain 5 μM test solution. The control compound digoxin or minoxidil was diluted with DMSO to 2 mM, and diluted with the transport buffer described above to 10 μM to obtain a control compound test solution. In addition, DMSO was also diluted with the transport buffer described above to a receiving end solution containing 0.5% DMSO.
The Transwell plate was removed from the incubator. Monolayer cell membranes were rinsed twice with the transport buffer (10 mM HEPES, pH 7.4) and incubated at 37° C. for 30 min.
The transport rate of the compound from the apical side to the basolateral side was determined. […]
The transport rate of the compound from the basolateral side to the apical side was determined.

[5] = In vivo pharmacokinetics in SD rats; details: male, rat, plasma
Experimental: Using SD rats as test animals, drug concentrations in plasma of the rats at different times after intravenous injection and intragastric administration of the compounds provided in the present application were determined by LC/MS/MS. In vivo pharmacokinetic behaviors of the compounds provided in the present application in rats were investigated to evaluate pharmacokinetic characteristics of the compounds.
There were three healthy 6-8-week-old male SD rats in each group.
Intravenous administration: A certain amount of drug was weighed, and then 10 vol % N,N-dimethylacetamide, 33 vol % triethylene glycol, and 57 vol % physiological saline were added to prepare 1 mg/mL colorless clear and transparent liquid;
Intragastric administration: A certain amount of drug was weighed, and then 0.5 wt % hydroxypropyl methylcellulose, 0.1 vol % tween 80, and 99.6 vol % physiological saline were added to prepare 1 mg/mL white suspension.
After fasting overnight, the SD rats were dosed intravenously or intragastrically.
The compounds provided in the present application were administered intravenously to the rats, then 0.2 mL of blood was collected from jugular veins respectively at 0.083, 0.25, 0.5, 1, 2, 4, 8, and 24 h after the administration, and placed in a test tube containing EDTA-K2. The test tube was then centrifuged at 4000 rpm at 4° C. for 5 min to separate plasma, and the plasma was stored at −75° C. Alternatively, the compounds provided in the present application were administered intragastrically to the rats, then 0.2 mL of blood was collected from jugular veins respectively at 0.25, 0.5, 1, 2, 4, 8, and 24 h after the administration, and placed in a test tube containing EDTA-K2. The test tube was then centrifuged at 3500 rpm at 4° C. for 10 min to separate plasma, and the plasma was stored at −75° C.
The content of the compounds to be tested in rat plasma after intravenous administration or intragastric administration at different concentrations was determined: 30 μL of rat plasma at each time after administration was taken, 200 μL (50 ng/mL) of solution of internal standard dexamethasone in acetonitrile was added, then the resulting mixture was vortex-mixed for 30 s, and centrifuged at 4700 rpm at 4° C. for 15 min, the supernatant of plasma samples was diluted three times with water, and 2.0 μL of diluted solution was taken for LC-MS/MS.

PXR = PXR (Homo sapiens (Human), UniProt O75469); experiment: Potential for PXR activation in DPX2 cells; type: cell-based; details: versus 20 μM rifampicin
Experimental: DMSO solutions of the compounds to be tested and the control compound rifampicin solution were prepared, and diluted with Puracyp dosing medium (Puracyp, Cat. No: D-500-100) at 37° C. to respective test concentrations. The final concentrations of the compounds to be tested were 30 μM, 10 μM, and 1 μM, respectively, and the final concentration of rifampicin was 20 μM. The final concentration of DMSO in the test solution was 0.1%. In addition, 0.1% DMSO solution prepared with Puracyp dosing medium was used as a control.
DPX2 cells were suspended in Puracyp Culture medium (Puracyp, Cat No.: C-500-100) at a cell density of 4.5×10^5 cell/mL. Then, the suspension was placed on a 96-well culture plate at 100 μL/well for incubation at 37° C. for 24 h. The medium in appropriate wells of the 96-well culture plate was replaced (three times per well) by 100 μL of solution of the compounds to be tested and a control compound solution. After replacement, the plate was incubated at 37° C. for 24 h. The medium was then replaced (three times per well) by a newly prepared test solution of the compounds to be tested and a rifampicin test solution, and the plate was incubated at 37° C. for 24 h.
The medium in the 96-well culture plate was pipetted and washed twice with PBS. To each well, 50 μL of reagent diluted as required by CellTiter-Fluor™ Cell Viability Assay Kit (Promega, Cat. No.: G6082) was added, and incubated at 37° C. for 0.5 h. The 96-well plate was cooled to room temperature, and the fluorescence value of each well at 505 nm was measured in a fluorescence mode with a microplate reader at an excitation wavelength of 400 nm. Then, 50 μL of reagent prepared as required by One-Glo Luciferase Assay System (Promega, Cat. No.: E6120) was added to each well, and the mixture was incubated at room temperature for 5 min. The luminescence value of each well was read by using a lumen meter.
Normalized luciferase activity was determined by RLU/RFU, and the RLU and RFU of the samples were mean values of duplicate wells, respectively.
[formula] • Fold of activation: fold of activation of normalized luciferase; • RLUtest: measured luminescence value of test wells at each test dose of test compounds; • RLUvehicle: measured luminescence value of test wells when tested with the control DMSO solution; • RFUtest: measured fluorescence value of test wells at each test dose of test compounds; • RFUvehicle: measured fluorescence value of test wells when tested with the control DMSO solution.
The percentage of positive control was calculated as follows:
% Positive control=(fold activationtest compound−1)/(fold activationpositive control compound−1)×100% • % Positive control: percentage of PXR activation compared with 20 μM rifampicin activation at each test dose of test compounds; • Fold activationtest compound: fold of activation of normalized luciferase at each test dose of test compounds; • Fold activationpositive control compound: fold of activation of normalized luciferase of test compounds under 20 μM rifampicin.

CYP1A2 = CYP1A2 (Homo sapiens (Human), UniProt P05177); experiment: CYP enzyme inhibition in pooled human liver microsomes (phenacetin); type: in vitro ADME
Experimental: (§1) Typical substrate metabolic responses of five major human CYP subtypes (CYP1A2, CYP2C9, CYP2C19, CYP2D6, CYP3A4) were evaluated using 150-donor pooled human liver microsomes (purchased from Corning, Cat. No.: 452117). The influence of different concentrations of each compound to be tested on metabolic responses of phenacetin (CYP1A2), diclofenac sodium (CYP2C9), S-mephenytoin (CYP2C19), bufuralol hydrochloride (CYP2D6), and midazolam (CYP3A4) was determined by liquid chromatography-mass spectrometry (LC/MS/MS). […] Then 200 μL of acetonitrile solution containing 3% formic acid and 40 nM internal standard verapamil was added and centrifuged at 4000 rpm for 50 min. The mixture was cooled on ice for 20 min and centrifuged at 4000 rpm for 20 min to precipitate the protein. Then 200 μL of supernatant was analyzed by LC-MS/MS. The peak area was calculated from the chromatogram. The residual activity ratio (%) was calculated according to the following equation: Peak area ratio=metabolite peak area/internal standard peak area Residual activity ratio (%)=peak area ratio of compounds-to-be-tested group/peak area ratio of blank group The half inhibitory concentration (IC50) for CYP was calculated by Excel XLfit 5.3.1.3.

CYP2D6 = CYP2D6 (Homo sapiens (Human), UniProt P10635); experiment: CYP enzyme inhibition in pooled human liver microsomes (bufuralol hydrochloride); type: in vitro ADME
Experimental: as §1

CYP2C9 = CYP2C9 (Homo sapiens (Human), UniProt P11712); experiment: CYP enzyme inhibition in pooled human liver microsomes (diclofenac sodium); type: in vitro ADME
Experimental: as §1

CYP3A4 = CYP3A4 (Homo sapiens (Human), UniProt P08684); experiment: CYP enzyme inhibition in pooled human liver microsomes (midazolam); type: in vitro ADME
Experimental: as §1

CYP2C19 = CYP2C19 (Homo sapiens (Human), UniProt P33261); experiment: CYP enzyme inhibition in pooled human liver microsomes (S-mephenytoin); type: in vitro ADME
Experimental: as §1
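Throughout, for GI50: MDA-MB-436 proliferation over 7 days with compound, viability read as ATP luminescence (CellTiter-Glo), inhibition relative to DMSO-only wells, day 0 signal as background, GI50 from four-parameter fit.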

Sequence of PXR (O75469 whole entry): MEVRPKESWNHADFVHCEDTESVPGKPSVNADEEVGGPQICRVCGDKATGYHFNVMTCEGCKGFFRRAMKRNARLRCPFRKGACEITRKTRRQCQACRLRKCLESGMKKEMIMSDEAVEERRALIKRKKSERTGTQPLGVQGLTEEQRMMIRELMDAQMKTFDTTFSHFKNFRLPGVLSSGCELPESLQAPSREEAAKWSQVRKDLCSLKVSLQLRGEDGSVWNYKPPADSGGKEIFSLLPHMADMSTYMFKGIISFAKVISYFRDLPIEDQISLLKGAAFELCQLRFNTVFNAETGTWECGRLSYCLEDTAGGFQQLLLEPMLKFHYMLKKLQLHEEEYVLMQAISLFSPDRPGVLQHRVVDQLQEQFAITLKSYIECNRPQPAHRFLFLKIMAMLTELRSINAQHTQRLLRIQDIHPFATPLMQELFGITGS
Sequence of USP1 (Recombinant Human His6-USP1/His6-UAF1 Complex Protein) (O94782 whole entry): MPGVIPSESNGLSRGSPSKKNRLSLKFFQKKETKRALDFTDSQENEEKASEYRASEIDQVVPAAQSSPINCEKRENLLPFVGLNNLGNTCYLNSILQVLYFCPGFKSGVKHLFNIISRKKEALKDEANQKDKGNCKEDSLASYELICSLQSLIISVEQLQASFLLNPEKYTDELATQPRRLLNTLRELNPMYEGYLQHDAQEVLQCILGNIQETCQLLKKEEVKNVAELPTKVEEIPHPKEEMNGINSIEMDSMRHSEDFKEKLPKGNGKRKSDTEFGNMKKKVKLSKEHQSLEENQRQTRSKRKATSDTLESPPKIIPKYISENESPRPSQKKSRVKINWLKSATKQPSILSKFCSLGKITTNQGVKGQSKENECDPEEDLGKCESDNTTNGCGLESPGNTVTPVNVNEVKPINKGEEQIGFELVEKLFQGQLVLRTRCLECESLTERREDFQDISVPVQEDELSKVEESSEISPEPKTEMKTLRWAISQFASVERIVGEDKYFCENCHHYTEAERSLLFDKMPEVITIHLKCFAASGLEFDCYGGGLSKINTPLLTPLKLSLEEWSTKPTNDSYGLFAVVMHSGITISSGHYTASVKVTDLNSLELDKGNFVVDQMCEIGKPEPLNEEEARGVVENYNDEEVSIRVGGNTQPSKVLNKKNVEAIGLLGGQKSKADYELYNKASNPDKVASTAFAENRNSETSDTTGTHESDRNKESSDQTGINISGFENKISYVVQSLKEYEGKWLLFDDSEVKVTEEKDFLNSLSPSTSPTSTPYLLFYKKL
Sequence of USP1 (Recombinant Human His6-USP1/His6-UAF1 Complex Protein) (Q8TAF3 whole entry partner): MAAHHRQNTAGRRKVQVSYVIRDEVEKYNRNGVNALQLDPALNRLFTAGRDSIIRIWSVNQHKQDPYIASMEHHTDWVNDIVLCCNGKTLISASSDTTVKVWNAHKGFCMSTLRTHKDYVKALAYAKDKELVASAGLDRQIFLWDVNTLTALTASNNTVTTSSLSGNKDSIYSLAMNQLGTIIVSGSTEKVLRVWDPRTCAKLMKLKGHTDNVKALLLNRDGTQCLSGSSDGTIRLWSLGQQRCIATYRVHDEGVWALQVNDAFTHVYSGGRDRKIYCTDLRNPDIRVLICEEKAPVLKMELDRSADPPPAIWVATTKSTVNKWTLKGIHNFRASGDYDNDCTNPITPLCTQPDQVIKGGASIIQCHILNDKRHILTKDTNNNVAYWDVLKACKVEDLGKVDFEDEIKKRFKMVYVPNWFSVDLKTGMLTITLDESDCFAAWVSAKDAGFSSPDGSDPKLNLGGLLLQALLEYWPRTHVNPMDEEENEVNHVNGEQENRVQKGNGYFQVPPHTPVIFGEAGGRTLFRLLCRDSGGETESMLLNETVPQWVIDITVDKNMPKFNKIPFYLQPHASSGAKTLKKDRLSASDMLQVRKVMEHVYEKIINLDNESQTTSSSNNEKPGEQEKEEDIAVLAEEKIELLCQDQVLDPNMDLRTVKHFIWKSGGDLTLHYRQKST
Sequence of CYP1A2 (P05177 whole entry): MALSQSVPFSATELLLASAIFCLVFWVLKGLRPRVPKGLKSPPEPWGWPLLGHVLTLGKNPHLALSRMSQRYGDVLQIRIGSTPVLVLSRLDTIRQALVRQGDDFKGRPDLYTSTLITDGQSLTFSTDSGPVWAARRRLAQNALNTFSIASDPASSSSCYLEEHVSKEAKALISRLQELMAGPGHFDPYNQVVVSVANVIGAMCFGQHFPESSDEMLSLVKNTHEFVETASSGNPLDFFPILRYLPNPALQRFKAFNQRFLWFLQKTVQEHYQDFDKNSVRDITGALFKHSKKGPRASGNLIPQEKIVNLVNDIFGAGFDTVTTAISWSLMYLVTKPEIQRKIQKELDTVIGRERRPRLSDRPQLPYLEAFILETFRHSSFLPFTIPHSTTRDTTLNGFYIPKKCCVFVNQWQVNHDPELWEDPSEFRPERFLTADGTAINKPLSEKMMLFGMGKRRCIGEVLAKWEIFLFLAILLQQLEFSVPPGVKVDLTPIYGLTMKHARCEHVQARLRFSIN
Sequence of CYP2C9 (P11712 whole entry): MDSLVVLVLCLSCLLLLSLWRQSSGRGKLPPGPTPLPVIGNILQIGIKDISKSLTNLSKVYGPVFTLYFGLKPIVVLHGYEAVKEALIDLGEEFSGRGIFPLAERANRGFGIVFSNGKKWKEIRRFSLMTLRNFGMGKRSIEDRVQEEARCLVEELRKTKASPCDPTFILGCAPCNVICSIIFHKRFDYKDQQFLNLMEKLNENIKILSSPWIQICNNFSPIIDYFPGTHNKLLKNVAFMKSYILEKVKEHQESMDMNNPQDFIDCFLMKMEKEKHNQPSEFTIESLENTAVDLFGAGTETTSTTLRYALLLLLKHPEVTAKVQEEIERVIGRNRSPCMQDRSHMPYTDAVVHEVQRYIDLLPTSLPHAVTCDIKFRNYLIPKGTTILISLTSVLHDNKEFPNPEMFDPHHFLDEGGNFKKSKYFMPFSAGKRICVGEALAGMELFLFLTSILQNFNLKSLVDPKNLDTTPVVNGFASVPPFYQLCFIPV
Sequence of CYP2D6 (P10635 whole entry): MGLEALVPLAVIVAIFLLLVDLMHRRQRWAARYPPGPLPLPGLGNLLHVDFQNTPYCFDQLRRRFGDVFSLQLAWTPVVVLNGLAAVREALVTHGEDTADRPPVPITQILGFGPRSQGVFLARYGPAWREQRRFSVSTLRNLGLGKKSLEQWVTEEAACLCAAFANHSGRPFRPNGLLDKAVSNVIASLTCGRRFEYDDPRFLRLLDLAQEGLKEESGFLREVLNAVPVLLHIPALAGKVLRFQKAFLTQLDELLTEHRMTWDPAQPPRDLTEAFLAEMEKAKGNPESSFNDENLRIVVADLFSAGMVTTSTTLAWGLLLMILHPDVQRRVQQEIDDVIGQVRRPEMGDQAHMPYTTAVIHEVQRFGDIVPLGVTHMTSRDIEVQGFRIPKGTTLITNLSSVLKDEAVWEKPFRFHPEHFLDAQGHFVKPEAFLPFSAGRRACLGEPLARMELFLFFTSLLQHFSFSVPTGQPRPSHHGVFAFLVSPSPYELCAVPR
Sequence of CYP2C19 (P33261 whole entry): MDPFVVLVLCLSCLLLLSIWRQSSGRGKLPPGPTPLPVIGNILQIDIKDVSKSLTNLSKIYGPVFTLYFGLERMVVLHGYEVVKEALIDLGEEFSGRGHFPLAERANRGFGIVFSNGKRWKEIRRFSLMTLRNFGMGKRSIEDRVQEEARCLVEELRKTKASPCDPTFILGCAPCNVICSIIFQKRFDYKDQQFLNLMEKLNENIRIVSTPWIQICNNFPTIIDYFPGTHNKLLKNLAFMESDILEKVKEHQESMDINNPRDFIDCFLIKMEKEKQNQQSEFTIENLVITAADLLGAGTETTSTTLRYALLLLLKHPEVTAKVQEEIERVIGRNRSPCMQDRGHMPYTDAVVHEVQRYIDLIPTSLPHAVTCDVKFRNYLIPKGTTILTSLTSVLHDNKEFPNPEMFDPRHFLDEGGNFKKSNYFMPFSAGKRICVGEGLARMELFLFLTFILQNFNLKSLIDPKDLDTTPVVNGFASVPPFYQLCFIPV
Sequence of CYP3A4 (P08684 whole entry): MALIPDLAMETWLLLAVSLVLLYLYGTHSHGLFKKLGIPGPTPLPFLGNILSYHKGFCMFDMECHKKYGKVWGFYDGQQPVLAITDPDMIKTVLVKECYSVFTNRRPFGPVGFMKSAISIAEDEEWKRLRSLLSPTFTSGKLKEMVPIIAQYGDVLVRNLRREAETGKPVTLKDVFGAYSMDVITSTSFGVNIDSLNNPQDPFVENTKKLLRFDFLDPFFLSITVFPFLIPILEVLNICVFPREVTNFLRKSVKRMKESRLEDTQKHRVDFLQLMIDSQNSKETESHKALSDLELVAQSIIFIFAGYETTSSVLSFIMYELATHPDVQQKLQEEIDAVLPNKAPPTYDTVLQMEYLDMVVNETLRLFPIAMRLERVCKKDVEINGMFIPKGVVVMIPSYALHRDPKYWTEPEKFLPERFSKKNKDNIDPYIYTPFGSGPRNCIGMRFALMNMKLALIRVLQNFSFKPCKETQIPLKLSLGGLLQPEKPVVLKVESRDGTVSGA
Experimental for MDA-MB-436 cells: Assay based on CellTiter-Glo luminescent cell viability assay system.
The assay kit (CellTiter-Glo® Luminescent Cell Viability Assay) was purchased from Promega, with Cat. No. of G7573, and was stored at −30° C. after subpackage. The kit is a homogeneous assay method for assaying the number of viable cells in a culture based on quantitative determination of ATP. The kit produces a luminescence signal proportional to the amount of ATP present, and the amount of ATP is directly proportional to the number of cells in the culture.
The cultured cells were trypsinized, collected and centrifuged, then resuspended at an adjusted concentration in a culture solution (DMEM+10% FBS), and cultured overnight on a 384-well plate (400 cells/20 μl/well) in a cell incubator with 5% CO2 at 37° C. An ECHO instrument was used to added the compound and pure DMSO onto each well of the 384-well plate. The total volume of the compound and DMSO is 100 nL, and the instrument obtains gradient diluted sample concentrations through different ratios. To each well, 30 μL of culture solution was added, and after mixing by centrifugal oscillation and re-centrifugation, the cells were cultured in a cell incubator for 7 days (one column of cells was subjected to CTG assay on the day of dosing). After day 7, 25 μL of CTG assay solution was added to each well, and after mixing by centrifugal oscillation and re-centrifugation, the cells were placed at room temperature away from light for 10 min. In terms of chemiluminescence signals, an Envision plate reader (PerkinElmer, emission wavelength: 400-700 nm) was used to measure a signal in each well. The chemiluminescence value [RLU]cpd on day 7 was obtained for the treatment group, the chemiluminescence value [RLU]cell on day 7 was obtained for the non-treatment group (given DMSO only), and the chemiluminescence value [RLU]background on day 0 was obtained for the parallel non-treatment group (given DMSO only) by CTG assay on day 0. […] In the following equation, x represents the concentration of the compound in a logarithmic form; and F(x) represents an effect value (inhibition rate of proliferation at the concentration): F(x)=(A+((B−A)/(1+((C/x)^D)))). A, B, C, and D are four parameters.

hepatocyte CLint at 1 μM [1]	GI50 (MDA-MB-436 cells)	hepatocyte CLint at 1 μM [2]	IC50 [3]	Papp A→B at 2 h, 5 μM ([4]; apical to basolateral)	Papp B→A at 2 h, 5 μM ([4]; basolateral to apical)	Vd ([5]; IV 2 mg/kg, read-out: Apparent volume of distribution Vss_obs)	clearance ([5]; IV 2 mg/kg, read-out: Clearance CL_obs)	half-life ([5]; IV 2 mg/kg, read-out: Half-life period T1/2 (converted))	bioavailability ([5]; PO 5 mg/kg versus IV, read-out: Bioavailability F)	Cmax ([5]; PO 5 mg/kg, read-out: Maximum plasma concentration Cmax)	PXR activation (% Positive control) (PXR; 30 μM)	IC50 (CYP1A2)	IC50 (CYP2D6)	IC50 (CYP2C9)	IC50 (CYP3A4)	PXR activation (% Positive control) (PXR; 10 μM)	IC50 (CYP2C19)	Compound
6.4 µL/min/1e6 cells	19.9 nM	4.85 µL/min/1e6 cells	14.3 nM															COc1ncnc(C2CC2)c1-c1ncc2c(n1)N(Cc1ccc(-c3nc(C(F)(F)F)cn3C)cc1)C(=O)C(C)(C)O2 [Compound 22, 2-(4-cyclopropyl-6-methoxypyrimidin-5-yl)-6,6-dimethyl-8-(4-(1-methyl-4-(trifluoromethyl)-1H-imidazol-2-yl)benzyl)-6H-pyrimido[5,4-b][1,4]oxazin-7(8H)-one]
4 µL/min/1e6 cells		< 1 µL/min/1e6 cells		7.5 ×10⁻⁶ cm/s	17.3 ×10⁻⁶ cm/s	4.1 L/kg	11.4 mL/min/kg	6 h	47.2%	235 ng/mL	32.8 % Positive control							COc1ncnc(C2CC2)c1-c1ncc2c(n1)N(Cc1ccc(-c3nc(C(F)(F)F)cn3C)cc1)C(=O)OC2(C)C [Compound 50, 7-(4-cyclopropyl-6-methoxypyrimidin-5-yl)-4,4-dimethyl-1-(4-(1-methyl-4-(trifluoromethyl)-1H-imidazol-2-yl)benzyl)-1,4-dihydro-2H-pyrimido[4,5-d][1,3]oxazin-2-one]
	30.7 nM		17.3 nM									> 30000 nM	> 30000 nM	4500 nM	> 30000 nM	13.2 % Positive control	10200 nM	COc1ncnc(C2CC2)c1-c1ncc2c(n1)N(Cc1ccc(-n3nc(C(F)(F)F)cc3C)cc1)C(=O)OC2(C)C [Compound 74, 7-(4-cyclopropyl-6-methoxypyrimidin-5-yl)-4,4-dimethyl-1-(4-(5-methyl-3-(trifluoromethyl)-1H-pyrazol-1-yl)benzyl)-1,4-dihydro-2H-pyrimido[4,5-d][1,3]oxazin-2-one]

— patent US20240226107A1, “UBIQUITIN-SPECIFIC PROTEASE 1 (USP1) INHIBITOR” (SIMCERE ZAIMING PHARMACEUTICAL CO., LTD., priority 2021, published 2024)
